# Data: patent US6737383B1, “Herbicidal oxadiazolidines” (priority 1999, dated 2004)
# Key:
# [1] = system: rice; test: Test B flood test rice; assay type: in vivo, Oryza sativa
# In short: (§1)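 Read-out is a visual response score from 0 (no effect) to 10 (complete control), assigned by comparison with untreated controls. Treatment was applied at the 2-leaf stage, and plants stayed in the greenhouse for twelve to sixteen days before scoring.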
# [2] = system: pigweed; test: Test B pre/postemergence pigweed; assay type: in vivo, Amaranthus retroflexus
# In short: (§2)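 Test chemicals in a non-phytotoxic solvent mixture with surfactant were sprayed preemergence onto planted seeds and postemergence onto plants 2 to 18 cm tall (1- to 4-leaf stage). After twelve to sixteen days in a greenhouse, injury was visually rated against untreated controls from 0 (no effect) to 10 (complete control).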
# [3] = system: crabgrass; test: Test B pre/postemergence crabgrass; assay type: in vivo, Digitaria sanguinalis
# In short: as §2
# [4] = system: soybean; test: Test B pre/postemergence soybean; assay type: in vivo, Glycine max
# In short: as §2
# [5] = system: giant foxtail; test: Test B pre/postemergence giant foxtail; assay type: in vivo, Setaria faberii
# In short: as §2
# [6] = system: rape; test: Test B pre/postemergence rape; assay type: in vivo, Brassica napus
# In short: as §2
# [7] = system: wheat; test: Test B pre/postemergence wheat; assay type: in vivo, Triticum aestivum
# In short: as §2
# [8] = system: morningglory; test: Test B pre/postemergence morningglory; assay type: in vivo, Ipomoea hederacea
# In short: as §2
# [9] = system: purple nutsedge; test: Test B pre/postemergence purple nutsedge; assay type: in vivo, Cyperus rotundus
# In short: as §2
# [10] = system: wild oat; test: Test B pre/postemergence wild oat; assay type: in vivo, Avena fatua
# In short: as §2
# [11] = system: blackgrass; test: Test B pre/postemergence blackgrass; assay type: in vivo, Alopecurus myosuroides
# In short: as §2
# [12] = system: duck salad; test: Test B flood test duck salad; assay type: in vivo, Heteranthera limosa
# In short: as §1
# [13] = system: surinam grass; test: Test B pre/postemergence surinam grass; assay type: in vivo, Brachiaria decumbens
# In short: as §2
# [14] = system: corn; test: Test B pre/postemergence corn; assay type: in vivo, Zea mays
# In short: as §2
# [15] = system: velvetleaf; test: Test B pre/postemergence velvetleaf; assay type: in vivo, Abutilon theophrasti
# In short: as §2
# [16] = system: bedstraw; test: Test B pre/postemergence bedstraw; assay type: in vivo, Galium aparine
# In short: as §2
# [17] = Rate 62 g/ha, flood test species, Pre-emergence, visual evaluation after twelve to sixteen days
# [18] = Rate 125 g/ha, under heading Pre-emergence, flood test species, visual evaluation after twelve to sixteen days
# [19] = Rate 250 g/ha, Pre-emergence (flood test species), scale 0 to 10, 0 is no effect, 10 is complete control
# [20] = Rate 500 g/ha, Pre-emergence section of Table B, 0 to 10 scale (0 no effect, 10 complete control)
# [21] = Postemergence, Rate 62 g/ha, scale of 0 to 10, 0 is no effect, 10 is complete control
# [22] = Postemergence, Rate 500 g/ha, scale of 0 to 10 where 0 is no effect and 10 is complete control
# [23] = Preemergence, Rate 62 g/ha, scale 0 to 10 (0 no effect, 10 complete control)
# [24] = Preemergence, Rate 125 g/ha, scale 0 to 10, 0 is no effect, 10 is complete control
# [25] = Preemergence, Rate 500 g/ha, scale of 0 to 10 where 0 is no effect and 10 is complete control
# [26] = Rate 250 g/ha, Postemergence, scale of 0 to 10 where 0 is no effect and 10 is complete control
# [27] = Postemergence, Rate 125 g/ha, scale 0 to 10, 0 is no effect, 10 is complete control
smiles,measurement,setting,value
CC(C)N(C(=O)n1oc(=O)n(CCC2OCCO2)c1=O)c1ccccc1 [Compound 560],"Plant response rating, Rice (0 to 10 scale, 0 is no effect, 10 is complete control)",[1]; [17],0
same,"Rice plant response rating (0 to 10 scale, 0 is no effect, 10 is complete control)",[1]; [18],0
same,Rice plant response rating,[1]; [19],0
same,Rice plant response rating,[1]; [20],0
same,Redroot pigweed plant response rating,[2]; [21],2
same,"Plant response rating, Redroot pigweed",[2]; [22],9
same,Redroot pigweed plant response rating,[2]; [23],3
same,Redroot pigweed plant response rating,[2]; [24],8
same,Redroot pigweed plant response rating (0 to 10 scale),"[2]; Preemergence, Rate 250 g/ha",9
same,Redroot pigweed plant response rating,[2]; [25],9
same,"Plant response rating, Redroot pigweed",[2]; [26],8
same,Crabgrass plant response rating,[3]; [21],0
same,Crabgrass plant response rating,[3]; [27],4
same,"Plant response rating, Crabgrass",[3]; [22],8
same,Crabgrass plant response rating,[3]; [23],9
same,Crabgrass plant response rating,[3]; [24],9
same,Crabgrass plant response rating (0 to 10 scale),"[3]; Preemergence, Rate 250 g/ha",9
same,Crabgrass plant response rating,[3]; [25],10
same,"Plant response rating, Crabgrass",[3]; [26],3
same,Soybean plant response rating,[4]; [21],2
same,"Plant response rating, Soybean",[4]; [22],3
same,Soybean plant response rating,[4]; [23],0
same,Soybean plant response rating,[4]; [24],0
same,Soybean plant response rating (0 to 10 scale),"[4]; Preemergence, Rate 250 g/ha",1
same,Soybean plant response rating,[4]; [25],3
same,"Plant response rating, Soybean",[4]; [26],2
same,Giant foxtail plant response rating,[5]; [21],2
same,Giant foxtail plant response rating,[5]; [27],7
same,"Plant response rating, Giant foxtail",[5]; [22],8
same,Giant foxtail plant response rating,[5]; [23],10
same,Giant foxtail plant response rating,[5]; [24],10
same,Giant foxtail plant response rating (0 to 10 scale),"[5]; Preemergence, Rate 250 g/ha",10
same,Giant foxtail plant response rating,[5]; [25],10
same,"Plant response rating, Giant foxtail",[5]; [26],7
same,Rape plant response rating,[6]; [21],0
same,"Plant response rating, Rape",[6]; [22],7
same,Rape plant response rating,[6]; [23],0
same,Rape plant response rating,[6]; [24],3
same,Rape plant response rating (0 to 10 scale),"[6]; Preemergence, Rate 250 g/ha",7
same,Rape plant response rating,[6]; [25],8
same,"Plant response rating, Rape",[6]; [26],4
same,Wheat plant response rating,[7]; [21],0
same,"Plant response rating, Wheat",[7]; [22],6
same,Wheat plant response rating,[7]; [23],3
same,Wheat plant response rating,[7]; [24],5
same,Wheat plant response rating (0 to 10 scale),"[7]; Preemergence, Rate 250 g/ha",6
same,Wheat plant response rating,[7]; [25],8
same,"Plant response rating, Wheat",[7]; [26],3
same,Morningglory plant response rating,[8]; [21],4
same,Morningglory plant response rating,[8]; [27],7
same,"Plant response rating, Morningglory",[8]; [22],10
same,Morningglory plant response rating,[8]; [23],0
same,Morningglory plant response rating,[8]; [24],0
same,Morningglory plant response rating (0 to 10 scale),"[8]; Preemergence, Rate 250 g/ha",3
same,Morningglory plant response rating,[8]; [25],3
same,"Plant response rating, Morningglory",[8]; [26],9
same,Nutsedge plant response rating,[9]; [21],3
same,Nutsedge plant response rating,[9]; [27],3
same,"Plant response rating, Nutsedge",[9]; [22],5
same,Nutsedge plant response rating,[9]; [23],0
same,Nutsedge plant response rating,[9]; [24],3
same,Nutsedge plant response rating (0 to 10 scale),"[9]; Preemergence, Rate 250 g/ha",7
same,Nutsedge plant response rating,[9]; [25],10
same,"Plant response rating, Nutsedge",[9]; [26],3
same,Wild oats plant response rating,[10]; [21],0
same,"Plant response rating, Wild oats",[10]; [22],2
same,Wild oats plant response rating,[10]; [23],0
same,Wild oats plant response rating,[10]; [24],0
same,Wild oats plant response rating (0 to 10 scale),"[10]; Preemergence, Rate 250 g/ha",5
same,Wild oats plant response rating,[10]; [25],7
same,"Plant response rating, Wild oats",[10]; [26],2
same,Blackgrass plant response rating,[11]; [21],2
same,Blackgrass plant response rating,[11]; [27],5
same,"Plant response rating, Blackgrass",[11]; [22],7
same,Blackgrass plant response rating,[11]; [23],4
same,Blackgrass plant response rating,[11]; [24],6
same,Blackgrass plant response rating (0 to 10 scale),"[11]; Preemergence, Rate 250 g/ha",9
same,Blackgrass plant response rating,[11]; [25],9
same,"Plant response rating, Blackgrass",[11]; [26],7
same,"Plant response rating, Ducksalad (0 to 10 scale, 0 is no effect, 10 is complete control)",[12]; [17],0
same,"Ducksalad plant response rating (0 to 10 scale, 0 is no effect, 10 is complete control)",[12]; [18],0
same,Ducksalad plant response rating,[12]; [19],0
same,Ducksalad plant response rating,[12]; [20],0
same,B. signalgrass plant response rating,[13]; [21],0
same,B. signalgrass plant response rating,[13]; [27],3
same,"Plant response rating, B. signalgrass",[13]; [22],7
same,B. signalgrass plant response rating,[13]; [23],4
same,B. signalgrass plant response rating,[13]; [24],7
same,"B. signalgrass plant response rating (0 to 10 scale, 0 is no effect, 10 is complete control)","[13]; Preemergence, Rate 250 g/ha",7
same,B. signalgrass plant response rating,[13]; [25],9
same,"Plant response rating, B. signalgrass",[13]; [26],6
same,Corn plant response rating,[14]; [21],0
same,Corn plant response rating,[14]; [27],0
same,"Plant response rating, Corn",[14]; [22],4
same,Corn plant response rating,[14]; [23],0
same,Corn plant response rating,[14]; [24],0
same,Corn plant response rating (0 to 10 scale),"[14]; Preemergence, Rate 250 g/ha",5
same,Corn plant response rating,[14]; [25],5
same,"Plant response rating, Corn",[14]; [26],2
same,Velvetleaf plant response rating,[15]; [21],0
same,"Plant response rating, Velvetleaf",[15]; [22],0
same,Velvetleaf plant response rating,[15]; [23],0
same,Velvetleaf plant response rating,[15]; [24],2
same,Velvetleaf plant response rating (0 to 10 scale),"[15]; Preemergence, Rate 250 g/ha",2
same,Velvetleaf plant response rating,[15]; [25],5
same,"Plant response rating, Velvetleaf",[15]; [26],0
same,Bedstraw plant response rating,[16]; [21],0
same,Bedstraw plant response rating,[16]; [23],0
same,Bedstraw plant response rating,[16]; [24],0
same,Bedstraw plant response rating (0 to 10 scale),"[16]; Preemergence, Rate 250 g/ha",5
same,Bedstraw plant response rating,[16]; [25],8
same,"Plant response rating, Bedstraw",[16]; [26],0
